Results: patent publication US3954840A, “1,3,5,7-Naphthalenetetracarboxylic acids and process for preparation thereof” (Teijin Ltd., priority 1973, dated 1976)
Where “and” joins values, the source holds several entries; their conditions need not be identical. Equal entries are not always repeated. Entries after “also recorded” stand apart in the source; their conditions may differ. Where two headings read alike, the source gives them in different places.

Key:
[1] = Solubility of potassium naphthalenecarboxylates in pure water and in aqueous K4 XA solution (Table 1); type: physicochemical; settings: 30% aqueous k4xa
From the text: Generally, alkali metal naphthalenecarboxylates, taken individually, are easily soluble in a sufficient amount of water.

[2] = Solubility of potassium salts in water/methanol mixtures at 30°C (Table 4); type: physicochemical
Solubility in words = type: physicochemical; settings: for Solubility in aqueous medium: aqueous medium (acid precipitation / disproportionation)
[3] = Solubility of K4 XA in aqueous potassium carbonate (Table 3); type: physicochemical; settings: water
Thermal stability = type: physicochemical
[4] = 30°C
[5] = Stability in water / acid; type: physicochemical

O=C([O-])c1ccc2cc(C(=O)[O-])ccc2c1.[K+].[K+]
Solubility in 100 g of a 30% by weight aqueous solution of tetrapotassium 1,3,5,7-naphthalenetetracarboxylate [1]: 1.0 g
Change of solubility with increasing methanol concentration [2]: decrease with higher methanol concentrations but not to such a great extent as in the case of K4 XA
Amount of solute dissolved in 100 g of a mixture of water and methanol ([2]; 30°C, methanol 40 wt. %): 8.5 g
Amount of solute dissolved in 100 g of a mixture of water and methanol ([2]; 30°C, methanol 60 wt. %): 3.6 g
Amount of solute dissolved in 100 g of a mixture of water and methanol ([2]; 30°C, methanol 80 wt. %): 0.88 g
Amount of solute dissolved in 100 g of a mixture of water and methanol ([2]; 30°C, methanol 100 wt. %): 0.17 g
Amount of solute dissolved in 100 g of a mixture of water and methanol ([2]; water): 32 g

O=C(O)c1cc(C(=O)O)c2cc(C(=O)O)cc(C(=O)[O-])c2c1.[K+]
Solubility in water (Solubility in words): difficultly soluble

O=C([O-])c1ccc2ccccc2c1.[K+]
Solubility in 100 g of a 30% by weight aqueous solution of tetrapotassium 1,3,5,7-naphthalenetetracarboxylate [1]: 0.3 g
Change of solubility with increasing methanol concentration [2]: decrease with higher methanol concentrations but not to such a great extent as in the case of K4 XA
Amount of solute dissolved in 100 g of a mixture of water and methanol ([2]; 30°C, methanol 40 wt. %): 45 g
Amount of solute dissolved in 100 g of a mixture of water and methanol ([2]; 30°C, methanol 60 wt. %): 30 g
Amount of solute dissolved in 100 g of a mixture of water and methanol ([2]; 30°C, methanol 80 wt. %): 19 g
Amount of solute dissolved in 100 g of a mixture of water and methanol ([2]; 30°C, methanol 100 wt. %): 9.3 g
Amount of solute dissolved in 100 g of a mixture of water and methanol ([2]; water): 80 g

O=C([O-])c1cc(C(=O)[O-])c2cc(C(=O)[O-])cc(C(=O)[O-])c2c1.[K+].[K+].[K+].[K+]
Solubility (grams of the potassium salt dissolved in 100 g of solvent) [3]: 57.0 g and 48.8 g
Change of solubility with increasing methanol concentration [2]: decreases abruptly
Solubility in methanol (Solubility in words): slightly soluble
Solubility in water (Solubility in words): very high; also recorded: Readily soluble
Thermal stability (Thermal stability): almost no change occurred, but the product was stable
Amount of tetrapotassium salt dissolved in 100 g of a mixture of water and methanol ([4]; methanol 40%, K2CO3 0%): 9.0 g
Amount of tetrapotassium salt dissolved in 100 g of a mixture of water and methanol ([4]; methanol 40%, K2CO3 10%): 3.8 g
Amount of tetrapotassium salt dissolved in 100 g of a mixture of water and methanol ([4]; methanol 40%, K2CO3 20%): 1.0 g
Amount of tetrapotassium salt dissolved in 100 g of a mixture of water and methanol ([4]; methanol 40%, K2CO3 30%): 0.2 g
Amount of tetrapotassium salt dissolved in 100 g of a mixture of water and methanol ([4]; methanol 60%, K2CO3 0%): 1.7 g
Amount of tetrapotassium salt dissolved in 100 g of a mixture of water and methanol ([4]; methanol 60%, K2CO3 10%): 0.1 g
Amount of tetrapotassium salt dissolved in 100 g of a mixture of water and methanol ([4]; methanol 80%, K2CO3 0%): 0.13 g
Amount of tetrapotassium salt dissolved in 100 g of a mixture of water and methanol ([4]; methanol 80%, K2CO3 3%): < 0.01 g

O=C([O-])c1cc(C(=O)[O-])c2cc(C(=O)O)cc(C(=O)[O-])c2c1.[K+].[K+].[K+]
Stability in water [5]: Easily decomposable

O=C(O)c1cc(C(=O)O)c2cc(C(=O)O)cc(C(=O)O)c2c1 [1,3,5,7-naphthalenetetracarboxylic acid]
Solubility in alcohols (Solubility in words; alcohols): Insoluble
Solubility in aqueous medium (Solubility in words): very low solubility
Solubility in aqueous medium (Solubility in words; listed as H4 XA): almost insoluble
Solubility in benzene (Solubility in words): Insoluble
Solubility in ether(s) (Solubility in words): Insoluble
Solubility in various solvents (Solubility in words; various solvents): very low solubility
Solubility in water (Solubility in words; water): Insoluble
Thermal stability (Thermal stability; high temperatures (melting point above 300°C)): decomposed

O.O.O=C([O-])c1cc(C(=O)[O-])c2cc(C(=O)[O-])cc(C(=O)[O-])c2c1.[K+].[K+].[K+].[K+] [Tetrapotassium 1,3,5,7-naphthalenetetracarboxylate dihydrate]
Amount of solute dissolved in 100 g of a mixture of water and methanol ([2]; 30°C, methanol 0 wt. %): 45 g
Amount of solute dissolved in 100 g of a mixture of water and methanol ([2]; 30°C, methanol 40 wt. %): 9 g
Amount of solute dissolved in 100 g of a mixture of water and methanol ([2]; 30°C, methanol 60 wt. %): 1.7 g
Amount of solute dissolved in 100 g of a mixture of water and methanol ([2]; 30°C, methanol 80 wt. %): 0.13 g
Amount of solute dissolved in 100 g of a mixture of water and methanol ([2]; 30°C, methanol 100 wt. %): 0.30 g

CCCCOC(=O)c1cc(C(=O)OCCCC)c2cc(C(=O)OCCCC)cc(C(=O)OCCCC)c2c1 [tetra-n-butyl 1,3,5,7-naphthalenetetracarboxylate]
Solubility in chloroform (Solubility in words): Readily soluble
Solubility in ether(s) (Solubility in words): Readily soluble
Solubility in hot ethanol (Solubility in words; hot ethanol): Readily soluble

CCCCCCCCCCCCOC(=O)c1cc(C(=O)OCCCCCCCCCCCC)c2cc(C(=O)OCCCCCCCCCCCC)cc(C(=O)OCCCCCCCCCCCC)c2c1 [tetra-n-dodecyl 1,3,5,7-naphthalenetetracarboxylate]
Solubility in acetone (Solubility in words; acetone): Readily soluble
Solubility in benzene (Solubility in words): Readily soluble
Solubility in chloroform (Solubility in words): Readily soluble
Solubility in ether(s) (Solubility in words): Readily soluble

O=C([O-])c1cc(C(=O)[O-])c2cc(C(=O)[O-])cc(C(=O)[O-])c2c1.[Na+].[Na+].[Na+].[Na+] [tetrasodium 1,3,5,7-naphthalenetetracarboxylate]
Thermal stability (Thermal stability; around 400°C): stable
